The source of these data is ChEMBL document CHEMBL3877311, “Discovery of a novel series of N-hydroxypyridone derivatives protecting astrocytes against hydrogen peroxide-induced toxicity via improved mitochondrial functionality” (Bioorg Med Chem, 2017).

The nature of data set [1]: Cytoprotective activity in Sprague-Dawley rat primary astrocytes assessed as inhibition of H2O2-induced cell death at 0.001 to 10 uM by LDH release assay relative to control. The data set is classed as functional, Astrocyte.
A short description of data set [2]: Cytoprotective activity in Sprague-Dawley rat primary astrocytes assessed as inhibition of H2O2-induced cell death by LDH release assay. In kind it is functional, cell-based. Particulars: Astrocyte.
Data set [3] has as its system Astrocyte. As to the kind of experiment: Inhibition of H2O2-induced mitochondrial metabolic dysfunction in Sprague-Dawley rat primary astrocytes by resazurin-dye based presto blue assay. In kind it is functional, cell-based.
Data set [4] relates to Astrocyte. Description: Inhibition of H2O2-induced mitochondrial metabolic dysfunction in Sprague-Dawley rat primary astrocytes at 0.001 to 10 uM by resazurin-dye based presto blue assay relative to control. The data set is classed as functional.
Data set [5] relates to Astrocyte. Description: Cytoprotective activity in Sprague-Dawley rat primary astrocytes assessed as inhibition of H2O2-induced mitochondrial membrane depolarization at 1 uM measured every 5 mins for 2 hrs by TMRM dye based fluorescence assay. In kind it is functional, cell-based.
Data set [6] in a line: Effect on basal extracellular acidification rate in Sprague-Dawley rat primary astrocytes at 1 uM. The data set is classed as ADME, cell-based. The settings on record: astrocyte.
The nature of data set [7]: Induction of mitochondrial membrane depolarization in Sprague-Dawley rat primary astrocytes at 1 uM measured every 5 mins for 2 hrs by TMRM dye based fluorescence assay. The settings on record: astrocyte. The data set is classed as cell-based.
In data set [8] the test system is Astrocyte. Description: Inhibition of H2O2-induced mitochondrial metabolic dysfunction in Sprague-Dawley rat primary astrocytes assessed as stimulation of extracellular acidification rate at 1 uM. In kind it is functional, cell-based.
Data set [9] can be described thus: Effect on ATP turn over-linked oxygen consumption rate in Sprague-Dawley rat primary astrocytes at 1 uM. The data set is classed as ADME, cell-based. Particulars: astrocyte.
The subject of data set [10] is Astrocyte. As to the kind of experiment: Inhibition of H2O2-induced mitochondrial metabolic dysfunction in Sprague-Dawley rat primary astrocytes assessed as stimulation of glycolytic metabolism at 1 uM. In kind it is functional, cell-based.
Data set [11] has as its system Astrocyte. Description: Cytoprotective activity in Sprague-Dawley rat primary astrocytes assessed as inhibition of H2O2-induced decrease in oxygen consumption rate at 1 uM. In kind it is functional, cell-based.
A short description of data set [12]: Effect on basal oxygen consumption rate in Sprague-Dawley rat primary astrocytes at 1 uM. In kind it is ADME, cell-based. Particulars: astrocyte.
The species named for another data set is Rattus norvegicus. Description: Cytotoxicity against Sprague-Dawley rat primary astrocytes assessed as cell death up to 10 uM by LDH release assay. The settings on record: astrocyte. In kind it is toxicity.

SMILES strings stand for the structures. The source made the active and inactive calls. The rule behind the calls is not given here.

Regarding `Cc1cc(C2CCCCC2)n(O)c(=O)c1` [CICLOPIROX], the Imax in [1] was 50.3%; in the data set with Astrocyte [4], 43.72%. Besides, the results for the IC50 (in data set [2]; in the data set with Astrocyte [3]) were 250 nM and 330 nM, respectively. The inhibition result in the data set on Astrocyte [5] was “Active”.
`Cc1cc(-c2cccc(F)c2)n(O)c(=O)c1` had an Imax in the data set with Astrocyte [4] of 0.75%.
In the case of `COc1ccccc1-c1ccc(-c2cc(C)cc(=O)n2O)cc1`, the Activity result (in data set [6]; in data set [7]; in data set [9]; in data set [12]; in the data set filed under Rattus norvegicus) was “Non-Toxic” each time. Besides, the Imax in data set [1] is 58.8%; in the data set with Astrocyte [4], 58.6%. Besides, the IC50 in data set [2] is 156 nM; with Astrocyte [3], 340 nM. Besides, the inhibition entry in the data set on Astrocyte [8], with Astrocyte [10], in the data set on Astrocyte [11] and with Astrocyte [5] was “Active” throughout.
